{
  "source": "patent US20260191192A1",
  "about": "“ANTIMICROBIAL COMPOSITIONS COMPRISING PELARGONIC ACID” (LANXESS Corporation, priority 2023, published 2026)",
  "key": {"[1]": {"system": "bacteria (Table 6 pool) and fungi", "assay": "Challenge test, overall result (full bacteria pool and fungi)", "format": "cell-based", "description": "(§1) The preservative activity in representative rinse-off and leave-on formulations was evaluated using a modification of the Personal Care Products Council (PCPC—formerly the Cosmetic, Toiletry and Fragrance Association) protocol (Machtiger, et al. 2001. Determination of the Efficacy of Preservation of Non-Eye Area Water Miscible Cosmetic and Toiletry Formulations: Collaborative Study. J of AOAC International. 84:1, 101-109).\n(§2) This evaluation was conducted using a four week, two or three-cycle (i.e., two-cycle for personal care and three-cycle for home care applications) microbial preservative efficacy test (i.e., challenge test) at 25° C. to determine the preservative efficacy of each treatment. Phenoxyethanol, benzyl alcohol and pelargonic acid were tested alone and in various combinations. The pelargonic acid used in the testing was purchased from Sigma-Aldrich. Combinations of phenoxyethanol or benzyl alcohol with benchmark multifunctional booster compounds were also tested for comparison. The preservative and booster ingredients were dosed and mixed thoroughly at room temperature into various formulations, specifically different personal care formulations including a lotion (leave-on, Table 1), a micellar water (rinse-off, Table 2), and a body wash formulation (rinse-off, Table 3) and different home care formulations including a manual dishwashing formulation (Table 4) and a liquid laundry detergent formulation (Table 5). […] Carbomers are a commonly used synthetic rheological modifier in personal care products. The formulation below was made by heating the aqueous (A) and oil (B) phases separately to 75-80° C. The oil phase was then poured into the aqueous phase and mixed by a homogenizer at approximately 45° C. The formed oil-in-water emulsion was cooled to room temperature. Triethanolamine and/or diluted sodium hydroxide was used to adjust the final pH to 6.3 or 6.5 (as indicated in the examples below).\n(§3) After dosing, the samples were divided into two separate five gram aliquots. One aliquot was inoculated with 50 μl of a diluted bacterial pool, and the second aliquot was inoculated with 50 μl of a diluted fungal pool as described below. Unpreserved product samples were included as a growth control.\n(§4) For personal care products, a mixed bacterial inoculum was prepared using 24-hour cultures of the test bacteria (Table 6) grown in trypticase soy broth (TSB). For home care products, a mixed bacterial inoculum was prepared using 24-hour cultures of the test bacteria either from Table 6 (full pool) or Table 7 (simplified pool) grown in trypticase soy broth (TSB). Details are disclosed in the home care examples below. Equal volumes of the bacterial test strains were combined and diluted one to ten in phosphate buffer to obtain an inoculum of approximately 5×10^7 to 5×10^8 colony forming units per ml (cfu/ml). The test samples were inoculated with 1% of the mixed bacterial inoculum. For both personal care and home care products, a mixed fungal inoculum was prepared using cell suspensions of the yeast Candida albicans ATCC #10231 and the mold Aspergillus brasiliensis ATCC #16404 in phosphate buffer. Equal volumes of the fungal test strains were combined and diluted one to ten with phosphate buffer to obtain an inoculum of approximately 5×10^6 to 5×10^7 cfu/ml. The test samples were inoculated with 1% of the mixed fungal inoculum.\n(§5) For personal care products, the samples were subjected to two microbial challenges at time zero and inoculated a second time after seven days. For home care products, the samples were subjected to three microbial challenges at time zero and inoculated a second and third time after seven and fourteen days, respectively. The number of microorganisms added to each sample was determined by a standard Most Probable Number (MPN) determination in Trypticase Soy Broth (TSB) for bacteria and Potato Dextrose Broth (PDB) for fungi. Samples were incubated at 25° C. for the test duration of four weeks."}, "[2]": {"system": "mixed fungal inoculum: Candida albicans ATCC #10231 and Aspergillus brasiliensis ATCC #16404", "assay": "Challenge test (preservative efficacy), mixed fungal inoculum", "format": "cell-based", "description": "as §1, §2, §3, §4, §5"}, "[3]": {"system": "bacteria (Table 7 pool) and fungi", "assay": "Challenge test, overall result (simplified bacteria pool and fungi)", "format": "cell-based", "description": "as §1, §2, §3, §4, §5"}, "[4]": {"system": "mixed bacterial inoculum (Table 6)", "assay": "Challenge test (preservative efficacy), mixed bacterial inoculum, full pool (Table 6)", "format": "cell-based", "description": "as §1, §2, §3, §4, §5"}, "[5]": {"system": "mixed bacterial inoculum for home care (Table 7)", "assay": "Challenge test (preservative efficacy), mixed bacterial inoculum, simplified pool (Table 7)", "format": "cell-based, Pseudomonas aeruginosa, Staphylococcus aureus", "description": "as §1, §2, §3, §4, §5"}, "[6]": {"assay": "ZenBio Cupric Ion Chelating (CIC) Assay", "format": "physicochemical", "settings": "calculated from a EDTA calibration curve, Pelargonic Acid at 775 μM", "description": "The chelation property of the pelargonic acid was measured by using the ZenBio Cupric Ion Chelating (CIC) Assay (Cat #AOX-16). The assay measured the capacity of the pelargonic acid to chelate free cupric ions in solution, thereby inhibiting Cu(II) binding to pyrocatechol violet (PV) for generating a highly colored complex. The absorbance of the Cupric-PV complex was measured at a wavelength of 632 nm. The cupric ion chelating activity was determined as the percent of total PV over the Cu(II) binding. Ethylenediaminetetraacetic acid (EDTA), a well-known chelating agent, was used as a positive control. A series of EDTA with 7 different concentrations from 0 to 1000 μM were prepared and their corresponding absorbance measured and used as the calibration curve (Cupric ion chelating (%) vs. EDTA concentration). Percent cupric ion chelating was determined following the following calculations and Equation 1. The background absorbance value by averaging the absorbance values of the three background wells (no CuSO4 or sample). The average background absorbance was then subtracted from all the sample absorbance values. The maximal absorbance value (Absmax) was determined by averaging the absorbance values of the three wells containing CuSO4, PV and assay buffer. Abstest in Equation 1 is the absorbance of the test sample.\nThe calibration curve (Cupric ion chelating (%) vs. EDTA concentration) was fit by using a polynomial curve after log 10 transforming the concentrations (R2>0.98)."}, "[7]": {"settings": "liquid laundry detergent, pH 7.5, Example 1H, dosed 0.5 wt %"}, "[8]": {"settings": "liquid laundry detergent, pH 7.5, Example 1H, dosed 1.0 wt %"}, "[9]": {"settings": "lotion with carbomer, pH 6.3, Example 1A, dosed 0.4 wt %"}, "[10]": {"settings": "lotion with carbomer, pH 6.5, Example 1I, dosed 0.4 wt %"}, "[11]": {"settings": "lotion with carbomer, pH 6.5, Example 1I, total dosing 0.8 wt %"}, "[12]": {"settings": "micellar water, pH 6.0, Example 1B, dosed 0.3 wt %"}, "[13]": {"settings": "micellar water, pH 6.0, Example 1C, dosed 0.3 wt %"}, "[14]": {"settings": "liquid laundry detergent, pH 7.5, Example 1G, dosed 0.5 wt %"}, "[15]": {"settings": "liquid laundry detergent, pH 7.5, Example 1G, dosed 1.0 wt %"}, "[16]": {"settings": "manual dishwashing formulation, pH 5.5, Example 1F, dosed 0.5 wt %"}, "[17]": {"settings": "manual dishwashing formulation, pH 5.5, Example 1F, dosed 1.0 wt %"}},
  "data": [
    {"compound": "OCCOc1ccccc1", "note": "[Phenoxyethanol (POE), 2-phenoxyethan-1-ol]", "values": [
      {"measurement": "Overall Result", "setting": "[1]; [7]", "result": "Fail"},
      {"measurement": "Overall Result", "setting": "[1]; [8]", "result": "Fail"},
      {"measurement": "Overall Result", "setting": "[1]; [9]", "result": "Fail"},
      {"measurement": "Overall Result", "setting": "[1]; [10]", "result": "Fail"},
      {"measurement": "Overall Result", "setting": "[1]; [11]", "result": "Pass"},
      {"measurement": "Overall Result", "setting": "[1]; [12]", "result": "Fail"},
      {"measurement": "Overall Result", "setting": "[1]; [13]", "result": "Fail"},
      {"measurement": "Fungi growth rating Result", "setting": "[2]; [14]", "result": "Fail (growth rating score caused by fungi of more than 2 at days 21-28 of the testing period)"},
      {"measurement": "Fungi growth rating Result", "setting": "[2]; [15]", "result": "Fail (growth rating score caused by fungi of more than 2 at days 21-28 of the testing period)"},
      {"measurement": "Fungi growth rating Result", "setting": "[2]; [7]", "result": "Fail (growth rating score caused by fungi of more than 2 at days 21-28 of the testing period)"},
      {"measurement": "Fungi growth rating Result", "setting": "[2]; [8]", "result": "Fail (growth rating score caused by fungi of more than 2 at days 21-28 of the testing period)"},
      {"measurement": "Fungi growth rating Result", "setting": "[2]; [9]", "result": "Fail (growth rating score caused by fungi of more than 2 at days 21-28 of the testing period)"},
      {"measurement": "Fungi growth rating Result", "setting": "[2]; [10]", "result": "Fail (growth rating score caused by fungi of more than 2 at days 21-28 of the testing period)"},
      {"measurement": "Fungi growth rating Result", "setting": "[2]; [11]", "result": "Pass (growth rating score caused by fungi of 2 or less at days 21-28 of the testing period)"},
      {"measurement": "Fungi growth rating Result", "setting": "[2]; lotion, pH 6.5, Example 4, dosed 0.8 wt %", "result": "Pass (growth rating score caused by fungi of 2 or less at days 21-28 of the testing period)"},
      {"measurement": "Fungi growth rating Result", "setting": "[2]; manual dishwash formulation, pH 6.5, Example 4, dosed 0.8 wt %", "result": "Fail (growth rating score caused by fungi of more than 2 at days 21-28 of the testing period)"},
      {"measurement": "Fungi growth rating Result", "setting": "[2]; [16]", "result": "Fail (growth rating score caused by fungi of more than 2 at days 21-28 of the testing period)"},
      {"measurement": "Fungi growth rating Result", "setting": "[2]; [17]", "result": "Fail (growth rating score caused by fungi of more than 2 at days 21-28 of the testing period)"},
      {"measurement": "Fungi growth rating Result", "setting": "[2]; [12]", "result": "Fail (growth rating score caused by fungi of more than 2 at days 21-28 of the testing period)"},
      {"measurement": "Fungi growth rating Result", "setting": "[2]; [13]", "result": "Fail (growth rating score caused by fungi of more than 2 at days 21-28 of the testing period)"},
      {"measurement": "Overall Result", "setting": "[3]; [14]", "result": "Fail"},
      {"measurement": "Overall Result", "setting": "[3]; [15]", "result": "Fail"},
      {"measurement": "Overall Result", "setting": "[3]; [16]", "result": "Fail"},
      {"measurement": "Overall Result", "setting": "[3]; [17]", "result": "Fail"},
      {"measurement": "Bacteria growth rating Result", "setting": "[4]; liquid laundry detergent, pH 7.5, full bacteria pool, Example 1H, dosed 0.5 wt %", "result": "Fail (growth rating score caused by bacteria of 2 or more at days 21-28 of the testing period)"},
      {"measurement": "Bacteria growth rating Result", "setting": "[4]; liquid laundry detergent, pH 7.5, full bacteria pool, Example 1H, dosed 1.0 wt %", "result": "Pass (growth rating score caused by bacteria of 1 or less at days 21-28 of the testing period)"},
      {"measurement": "Bacteria growth rating Result", "setting": "[4]; [9]", "result": "Fail (growth rating score caused by bacteria of 2 or more at days 21-28 of the testing period)"},
      {"measurement": "Bacteria growth rating Result", "setting": "[4]; lotion with carbomer, pH 6.3, Example 1D, dosed 0.4 wt %", "result": "Fail (growth rating score caused by bacteria of 2 or more at days 21-28 of the testing period)"},
      {"measurement": "Bacteria growth rating Result", "setting": "[4]; lotion with carbomer, pH 6.3, Example 1D, dosed 0.8 wt %", "result": "Pass (growth rating score caused by bacteria of 1 or less at days 21-28 of the testing period)"},
      {"measurement": "Bacteria growth rating Result", "setting": "[4]; [10]", "result": "Fail (growth rating score caused by bacteria of 2 or more at days 21-28 of the testing period)"},
      {"measurement": "Bacteria growth rating Result", "setting": "[4]; [11]", "result": "Pass (growth rating score caused by bacteria of 1 or less at days 21-28 of the testing period)"},
      {"measurement": "Bacteria growth rating Result", "setting": "[4]; micellar water, pH 6.0, bacteria inoculation ~10^7 cfu/ml, Example 1B, dosed 0.3 wt %", "result": "Pass (growth rating score caused by bacteria of 1 or less at days 21-28 of the testing period)"},
      {"measurement": "Bacteria growth rating Result", "setting": "[4]; micellar water, pH 6.0, bacteria inoculation ~10^8 cfu/ml, Example 1C, dosed 0.3 wt %", "result": "Fail (growth rating score caused by bacteria of 2 or more at days 21-28 of the testing period)"},
      {"measurement": "Bacteria growth rating Result", "setting": "[5]; liquid laundry detergent, pH 7.5, simplified bacteria pool, Example 1G, dosed 0.5 wt %", "result": "Pass (growth rating score caused by bacteria of 1 or less at days 21-28 of the testing period)"},
      {"measurement": "Bacteria growth rating Result", "setting": "[5]; liquid laundry detergent, pH 7.5, simplified bacteria pool, Example 1G, dosed 1.0 wt %", "result": "Pass (growth rating score caused by bacteria of 1 or less at days 21-28 of the testing period)"},
      {"measurement": "Bacteria growth rating Result", "setting": "[5]; manual dishwashing formulation, pH 5.5, simplified bacteria pool, Example 1F, dosed 0.5 wt %", "result": "Fail (growth rating score caused by bacteria of 2 or more at days 21-28 of the testing period)"},
      {"measurement": "Bacteria growth rating Result", "setting": "[5]; manual dishwashing formulation, pH 5.5, simplified bacteria pool, Example 1F, dosed 1.0 wt %", "result": "Fail (growth rating score caused by bacteria of 2 or more at days 21-28 of the testing period)"},
      {"measurement": "Calculated EDTA equivalent", "setting": "[6]; listed as Phenoxyethanol", "result": "~0", "unit": "µM"},
      {"measurement": "Calculated EDTA equivalent", "setting": "[6]; listed as phenoxyethanol", "result": "~ 0 μM"}
    ]}
  ]
}
